Activity calls are given as the source filed them. No rule for the calls is given here.

The subject of this data set is CCRIS mutagenicity, Ames/micronucleus/aberration tests. The data set is described as follows: CCRIS mutagenicity studies.
Where [1] appears, read: Test System: AMES SALMONELLA TYPHIMURIUM, Strain/Indicator: TA98, Metabolic Activation: NONE, Method: STANDARD PLATE.
Setting [2] is: Test System: AMES SALMONELLA TYPHIMURIUM, Strain/Indicator: TA100, Metabolic Activation: NONE, Method: STANDARD PLATE.
[3] abbreviates: Test System: Mouse lymphoma, Strain/Indicator: L5178Y (tk+/tk-), Metabolic Activation: None, Method: Suspension/plate.
Where [4] appears, read: Test System: Mouse lymphoma, Strain/Indicator: L5178Y (tk+/tk-), Metabolic Activation: Rat, Liver, S-9, Aroclor 1254, Method: Suspension/plate.

`Nc1cc(S(=O)(=O)O)cc2c1C(=O)/C(=N/Nc1ccc(-c3ccc(N/N=C4/C(=O)c5c(N)cc(S(=O)(=O)O)cc5C=C4S(=O)(=O)O)cc3)cc1)C(S(=O)(=O)O)=C2`: the mutagenic call was “inactive; negative” (End Point: IN VITRO CHROMOSOMAL ABERRATIONS, Test System: CHINESE HAMSTER OVARY CELLS, Metabolic Activation: NONE); “inactive; negative” (End Point: IN VITRO CHROMOSOMAL ABERRATIONS, Test System: CHINESE HAMSTER OVARY CELLS, Metabolic Activation: RAT, LIVER, S-9, AROCLOR 1254); “active; positive” (Test System: AMES SALMONELLA TYPHIMURIUM, Strain/Indicator: TA98, Metabolic Activation: HAMSTER, LIVER, S-9, Method: PREINCUBATION (PRIVAL METHOD)); “inactive; negative” under setting [1]; “inactive; negative” (Test System: AMES SALMONELLA TYPHIMURIUM, Strain/Indicator: TA98, Metabolic Activation: RAT, LIVER, S-9, PHENOBARBITAL, Method: STANDARD PLATE); “active; positive” (Test System: AMES SALMONELLA TYPHIMURIUM, Strain/Indicator: TA100, Metabolic Activation: HAMSTER, LIVER, S-9, Method: PREINCUBATION (PRIVAL METHOD)). Besides, the mutagenic call is, setting by setting: under setting [2], “active; positive”; (Test System: AMES SALMONELLA TYPHIMURIUM, Strain/Indicator: TA100, Metabolic Activation: RAT, LIVER, S-9, PHENOBARBITAL, Method: STANDARD PLATE) “inactive; negative”; (Test System: AMES SALMONELLA TYPHIMURIUM, Strain/Indicator: TA1538, Metabolic Activation: RAT, LIVER, S-9, AROCLOR 1254, Method: STANDARD PLATE) “inactive; negative”; under setting [3], “inactive; negative”; under setting [4], “inactive; equivocal (previous results negative)”.

`Cc1nc2ccccc2s1`: the mutagenic call (Test System: AMES SALMONELLA TYPHIMURIUM, Strain/Indicator: TA98, Metabolic Activation: HAMSTER, LIVER, S-9, AROCLOR 1254, Method: STANDARD PLATE) is “inactive; negative”; the mutagenic call under setting [1] is “inactive; negative”; the mutagenic call (Test System: AMES SALMONELLA TYPHIMURIUM, Strain/Indicator: TA98, Metabolic Activation: RAT, LIVER, S-9, AROCLOR 1254, Method: STANDARD PLATE) is “inactive; negative”; the mutagenic call (Test System: AMES SALMONELLA TYPHIMURIUM, Strain/Indicator: TA100, Metabolic Activation: HAMSTER, LIVER, S-9, AROCLOR 1254, Method: STANDARD PLATE) was “inactive; negative”; the mutagenic call under setting [2] was “inactive; negative”; the mutagenic call (Test System: AMES SALMONELLA TYPHIMURIUM, Strain/Indicator: TA100, Metabolic Activation: RAT, LIVER, S-9, AROCLOR 1254, Method: STANDARD PLATE) is “inactive; negative”. The mutagenic call (Test System: AMES SALMONELLA TYPHIMURIUM, Strain/Indicator: TA102, Metabolic Activation: HAMSTER, LIVER, S-9, AROCLOR 1254, Method: STANDARD PLATE) was “inactive; negative”; the mutagenic call (Test System: AMES SALMONELLA TYPHIMURIUM, Strain/Indicator: TA102, Metabolic Activation: NONE, Method: STANDARD PLATE) is “inactive; negative”; the mutagenic call (Test System: AMES SALMONELLA TYPHIMURIUM, Strain/Indicator: TA102, Metabolic Activation: RAT, LIVER, S-9, AROCLOR 1254, Method: STANDARD PLATE) was “inactive; negative”; the mutagenic call (Test System: AMES SALMONELLA TYPHIMURIUM, Strain/Indicator: TA1535, Metabolic Activation: HAMSTER, LIVER, S-9, AROCLOR 1254, Method: STANDARD PLATE) was “inactive; negative”; the mutagenic call (Test System: AMES SALMONELLA TYPHIMURIUM, Strain/Indicator: TA1535, Metabolic Activation: NONE, Method: STANDARD PLATE) was “inactive; negative”; the mutagenic call (Test System: AMES SALMONELLA TYPHIMURIUM, Strain/Indicator: TA1535, Metabolic Activation: RAT, LIVER, S-9, AROCLOR 1254, Method: STANDARD PLATE) was “inactive; negative”. The mutagenic call runs as follows: (Test System: AMES SALMONELLA TYPHIMURIUM, Strain/Indicator: TA1537, Metabolic Activation: HAMSTER, LIVER, S-9, AROCLOR 1254, Method: STANDARD PLATE) “inactive; negative”; (Test System: AMES SALMONELLA TYPHIMURIUM, Strain/Indicator: TA1537, Metabolic Activation: NONE, Method: STANDARD PLATE) “inactive; negative”; (Test System: AMES SALMONELLA TYPHIMURIUM, Strain/Indicator: TA1537, Metabolic Activation: RAT, LIVER, S-9, AROCLOR 1254, Method: STANDARD PLATE) “inactive; negative”; under setting [3], “active; positive”; under setting [4], “inactive; negative”.

Turning to `C=C(C)C(C)Cl` (centres undefined), the mutagenic call (Test System: AMES SALMONELLA TYPHIMURIUM, Strain/Indicator: TA100, Metabolic Activation: NONE, Method: LIQUID SUSPENSION) was “active; positive”.
